The text below walks through data of patent US20140066394A1, “Substituted 6-(Benzylamino) Purine Riboside Derivatives, Use Thereof and Compositions Containing These Derivatives” (Biopatterns, S.R.O, priority 2009, published 2014).

Data set [1] has as its system human myeloid leukemia K-562. Description: In vitro cytotoxicity, Calcein AM assay, K-562. The class given is cell-based. The text has this: (§1) Low cytotoxicity of the compounds is the major property determining the cosmetic use. One of the parameters used, as the basis for cytotoxicity assays, is the metabolic activity of viable cells. For example, a microtiter assay, which uses the Calcein AM, is now widely used to quantitate cell proliferation and cytotoxicity. For instance, this assay is used in drug screening programs and in chemosensitivity testing. Because only metabolically active cells cleave Calcein AM, these assays detect viable cells exclusively. The quantity of […] Calcein AM corresponds to the number of vital cells in the culture.
(§2) Human T-lymphoblastic leukemia cell line CEM; promyelocytic HL-60 and monocytic U937 leukemias; breast carcinoma cell lines MCF-7, BT549, MDA-MB-231; glioblastoma U87MG cells; cervical carcinoma cells HELA; sarcoma cells U2OS and Saos2; hepatocellular carcinoma HepG2; mouse fibroblasts NIH3T3; mouse immortalized bone marrow macrophages B2.4 and B10A.4; P388D1 and L1210 leukemia; B16 and B16F10 melanomas; human osteosarcoma HOS; human myeloid leukemia K-562; human skin melanoma G-361 were used for routine screening of compounds. The cells were maintained in Nunc/Corning 80 cm^2 plastic tissue culture flasks and cultured in cell culture medium (DMEM with 5 g/l glucose, 2 mM glutamine, 100 U/mL penicillin, 100 μg/mL streptomycin, 10% fetal calf serum and sodium bicarbonate).
(§3) The cell suspensions that were prepared and diluted according to the particular cell type and the expected target cell density (2.500-30.000 cells per well based on cell growth characteristics) were added by pipette ([…]) into 96/well microtiter plates. Inoculates were allowed a pre-incubation period of 24 hours at 37° C. and 5% CO2 for stabilisation. Four-fold dilutions of the intended test concentration were added at time zero in 20 μl aliquots to the microtiter plate wells. Usually, the compound tested was evaluated at six 4-fold dilutions. In routine testing, the highest well concentration was 100 μM, but it can be the matter of change dependent on the agent. All drug concentrations were examined in duplicates. Incubations of cells with the tested compounds lasted for 72 hours at 37° C., in 5% CO2 atmosphere and 100% humidity. At the end of the incubation period, the cells were assayed by using Calcein AM. Ten microliters of the stock solution were pipetted into each well and incubated for 1 hour. Fluorescence (FD) was measured with the Labsystem FIA Reader Fluoroscan Ascent (UK). The tumour cell survival (GI50) was calculated using the following equitation: TCS=(FDdrug exposed well/mean FDeontrol wells)×100%. The GI50 value, the drug concentration lethal to 50% of the tumour cells, was calculated from the obtained dose response curves.
(§4) Zero cytotoxicity of the novel compounds is the basic prerequisite for agricultural and tumor-unrelated applications. The cytoxicity of the novel compounds was tested on a panel of cell lines of different histogenetic and species origin (Table 9). We show herein that equal activities were found in all tumour cell lines tested, however, the non-malignant cells, e.g. NIH3T3 fibroblasts and normal human lymphocytes, were resistant to 2,6-disubstituted purine ribosides induced cytotoxicity. The compounds listed in Tab. 9 can be divided into 2 groups. The first group contains “classical cytokinins” represented by 6-substituted purine ribosides (which are known in the prior art). The second group contains the novel 2,6-disubstituted derivatives of these compounds. […] GI50 for NIH3T3 fibroblasts and normal human lymphocytes was always higher than 100 μM. The novel derivatives show no toxicity to normal and tumour cells in concentrations about 100 μM and thus are more suitable for agricultural applications than “classical cytokinins” (6-substituted purine riboside derivatives).

Data set [2] concerns breast carcinoma cell line MCF-7. Description: In vitro cytotoxicity, Calcein AM assay, MCF7. The class given is cell-based, human.
Excerpt: as §1, §2, §3, §4

Data set [3] deals with human skin melanoma G-361. Briefly: In vitro cytotoxicity, Calcein AM assay, G-361. The class given is cell-based.
Excerpt: as §1, §2, §3, §4

A further data set relates to human osteosarcoma HOS. Description: In vitro cytotoxicity, Calcein AM assay, HOS. The class given is cell-based. To be noted: 72 hours.
Excerpt: as §1, §2, §3, §4

The subject of data set [4] is Human T-lymphoblastic leukemia cell line CEM. Briefly: In vitro cytotoxicity, Calcein AM assay, CEM. It is filed as cell-based. Conditions: 72 hours.
Excerpt: as §1, §2, §3, §4

Data set [5] has as its system promyelocytic HL-60 leukemia. Description: In vitro cytotoxicity, Calcein AM assay, HL60. The class given is cell-based, human.
Excerpt: as §1, §2, §3, §4

The subject of a further data set is β-adrenergic receptors. Description: Isoproterenol-induced cAMP synthesis in rat C6 glioma (anti-inflammatory activity). It is filed as cell-based. To be noted: for Effect (modulation of isoproterenol-induced cAMP synthesis): added simultaneously with (−)-isoproterenol; for IC50: cellular cAMP by enzyme immunoassay, dose-response curve in duplicate, read-out: I50. The procedure: Anti-inflammatory activity of several of the 2-substituted 6-benzylaminopurine riboside derivatives of this invention was determined; kinetin riboside was also evaluated as a control. Rat C6 glioma (ATCC No. CCL107) was cultivated in monolayer in serum-free chemically defined medium containing Ham's F10/minimal essential medium (1:1 v/v), 2 mM L-glutamine, 1% (v/v) minimal essential medium vitamins (100×), 1% (v/v) minimal essential medium nonessential amino acids (100×), 100 U/mL penicillin, […], and 30 nM sodium selenite. Incubation was performed at 37° C. in a humidified atmosphere. The assays were performed in the logaritmic growth phase at a density of 2.5×10^5 cells/cm^2.
Intracellular cAMP synthesis was induced by addition of 5 mM (−)-isoproterenol; various amounts of test compounds were added at the same time as the (−)-isoproterenol. After […] incubation at 37° C., the medium was removed and the cellular amount of cAMP was determined using the cAMP-enzyme immunoassay kit from Amersham. The I50 value was determined from a dose-response curve in duplicate. The effect of nine purine analogues was measured after simultaneous addition with isoproterenol.
As P2Y1-like and A2 purinergic receptors, negatively and positively coupled to adenylate cyclase respectively, are present on rat C6 glioma as to be determined if the modulation of the synthesis of cAMP is due to inhibition of the activation of β-adrenergic receptors by isoproterenol are due to activation of purinergic receptors.

In data set [6] the test system is cytokinin-dependent tobacco callus Nicotiana tabacum L. cv. Wisconsin 38. Description: Tobacco callus bioassay (stimulation of plant cell division). It is filed as cell-based. On the procedure: Cytokinin-dependent tobacco callus Nicotiana tabacum L. cv. Wisconsin 38 was maintained at 25° C. in darkness on modified MS medium, containing per 1 liter: 4 μmol of nicotinic acid, 2.4 μmol of pyridoxine hydrochloride, 1.2 μmol of thiamine, 26.6 μmol of glycine, 1.37 μmol of glutamine, 1.8 μmol of myo-inositol, 30 g of sucrose, 8 g of agar, 5.37 μmol of NAA and 0.5 μmol of the compound tested. Subcultivation was carried out every three weeks. Fourteen days before the bioassay, the callus tissue was transferred to the media without the compound tested. The biological activity was determined from the increase of the fresh callus weight after four weeks of cultivation. Five replicates were prepared for each concentration of the compound tested and the entire test was repeated twice. From the obtained data, the concentration with the highest activity was selected for each compound tested. Relative activity of the compound at this concentration was calculated (Table 8). The compounds to be tested were dissolved in dimethylsulfoxide (DMSO) and the solution brought up to 10^−3M with distilled water. […] The compounds listed in Table 8 are compared to a “classical cytokinin” kinetin riboside (compound known in the prior art—C=control).

Data set [7] in a line: Solubility noted on isolation of the product. It is filed as physicochemical. To be noted: qualitative, solvent as stated. The procedure: 2-Benzylmercapto-6-(2-hydroxy-3-methoxybenzylamino)purine riboside (1.18 g) was dissolved in liquid ammonia (125 mL) to yield a clear yellow solution. […]. Sodium was added in small portions until the blue colouration persisted for 15 mins A small amount of solid ammonium chloride was added cautiously to remove excess Na. The ammonia was evaporated to a small volume on a hot plate and ether (125 mL) added (to remove bibenzyl formed as a by-product). After most of the remaining ammonia had been evolved the ether extract was extracted with water (2×65 mL). The aqueous extrakt (at pH 12 to 13) was adjusted to 5 with AcOH cooling to below 10 on dry ice. A creamy solid precipitated. The solid was filtered, washed thoroughly with water and dried overnight over calcium chloride to yield a virtually white, very light powder. Yield: 760 mg. 2-Mercapto-6-(2-hydroxy-3-methoxybenzylamino)purine riboside gives a sharp, symmetrical peak on HPLC (300 nm) and moves readily on TLC in MeOH/chloroform mixtures. […] EtOH solution develops strong yellow colour on standing at room temperature for several days.
2-Methylmercapto-6-chloropurine riboside (3.3 g, 10 mmol) was refluxed with 2-hydroxy-3-methoxybenzylamine ([…], 12 5 mmol) in butanol (100 mL) containing triethylamine (3.2 mL) for 2 h. The butanol was removed under vacuum at 50 to 60° C. […]

Turning to `OC[C@H]1O[C@@H](n2cnc3c(NCc4cc(Cl)ccc4O)nc(Cl)nc32)[C@H](O)[C@@H]1O` [Compound 29, 2-Chloro-6-(2-hydroxy-5-chlorobenzylamino)purine riboside], the 50% growth inhibitory concentration (GI50) (in data set [1] (72 hours); in data set [2] (72 hours); in data set [3] (72 hours); in the data set with human osteosarcoma HOS; in [4]; in data set [5] (72 hours)) was over 100 µM throughout. For the same compound, in the data set on β-adrenergic receptors, the “Effect (modulation of isoproterenol-induced cAMP synthesis)” value is “inhibition”. At β-adrenergic receptors, the IC50 is 12.4 ± 2 µM.
As for `OCC1OC(n2cnc3c(NCc4cc(F)ccc4O)nc(Cl)nc32)C(O)C1O` (centres unmarked) [Compound 30], the “concentration with highest activity” value in data set [6] (increase of fresh callus weight after four weeks, tested 10^−8 M to 10^−4 M) is listed as 10^−6 mol · l^−1. In data set [6] (relative activity at the concentration with highest activity, kinetin riboside at 10^−5 mol/l = 100%), the “activity (%) [10^−5 mol · l^−1 C = 100%]” value is reported as 108.6 (±3) %. Further, the GI50 in data set [1] (Homo sapiens, K562, 72 hours) was over 100 µM; in [2] (Homo sapiens, MCF7, 72 hours) it was over 100 µM; in data set [3] (Homo sapiens, G-361, 72 hours), over 100 µM; in the data set on human osteosarcoma HOS (Homo sapiens), over 100 µM; in data set [4] (Homo sapiens), over 100 µM; in data set [5] (Homo sapiens, HL-60, 72 hours), over 100 µM. Besides, the “Effect (modulation of isoproterenol-induced cAMP synthesis)” value in the data set on β-adrenergic receptors is “inhibition”. Further, the IC50 in the data set with β-adrenergic receptors worked out at 15.7 ± 4 µM.
As to `COc1cccc(CNc2nc(S)nc3c2ncn3[C@@H]2O[C@H](CO)[C@@H](O)[C@H]2O)c1O` [Compound 71, 2-Mercapto-6-(2-hydroxy-3-methoxybenzylamino)purine riboside], the solubility result in [7] is “soluble in EtOH”.
With `COc1cccc(CNc2nc(SC)nc3c2ncn3[C@@H]2O[C@H](CO)[C@@H](O)[C@H]2O)c1O` [Compound 87, 2-Methylmercapto-6-(2-hydroxy-3-methoxybenzylamino)purine riboside], the solubility entry in data set [7] was “very soluble in methanol and water”.

The term GI50 denotes the concentration giving 50% growth inhibition.
